In PMC9920986 (Molecules, 2023):
Read-outs that look alike come from different tables or passages of the source.

How the values were obtained:
[1] = tested on: NQO2; settings: cited from earlier work; for IC50: Figure 1
[2] = molecular target: T1, human recombinant NRH:quinone oxidoreductase (NQO2) (Homo sapiens, UniProt P16083); assay: biochemical; settings: for inhibition at 10 µM: read-out: NQO2 Inhibition, %
T1 construct: purchased Sigma Q0380
T1 sequence (P16083 1-231): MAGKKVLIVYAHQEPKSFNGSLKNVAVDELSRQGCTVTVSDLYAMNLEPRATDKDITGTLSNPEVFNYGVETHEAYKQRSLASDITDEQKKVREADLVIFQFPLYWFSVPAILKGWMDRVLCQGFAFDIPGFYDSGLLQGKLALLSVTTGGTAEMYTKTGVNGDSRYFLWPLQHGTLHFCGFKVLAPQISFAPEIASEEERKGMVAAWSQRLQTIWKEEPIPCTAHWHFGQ
Experimental: The inhibition activity of all synthesized compounds at a concentration of 10 µM was preliminarily tested in vitro using human recombinant NRH:quinone oxidoreductase (NQO2).
The activity of recombinant human NQO2 (Sigma #Q0380, St. Louis, […], USA) was evaluated kinetically using menadione and N-benzyl-dihydronicotinamide (BNAH) as the substrate and co-substrate, respectively. All reagents and test compounds were dissolved in 50 mM Hepes-KOH (pH 7.4) containing 1 mM of β-octyl-D-glucopyranoside, 0.1 mg/mL BSA and 1 μM FAD. […] The solutions of the test compounds were pre-incubated for 5 min with 50 μL of human recombinant NQO2 (final concentration 42 ng/mL). Then, 25 μL of menadione was introduced at a final concentration of 100 μM. The reaction was started with 25 μL of 100 μM BNAH. The fluorescence of the co-substrate BNAH was followed at wavelengths of 370/440 nm at 37 °C using an Infinite M200 Pro microplate reader (Tecan, Grödig, Austria). The fluorescence data was fit according to a one-phase decay nonlinear regression to obtain slope values with Prism 8.0 (GraphPad Inc., San Diego, CA, USA). The activity in sample wells were normalized against negative control and enzyme-blank samples.

[3] = tested on: A549 cell line; assay: Antiproliferative assay (MTT colorimetric test, 72 h); format: cell-based; settings: n.a. = not active
Description: (§1) The cytotoxicity of the synthesized oxindoles was studied using the A549 cell line in which the levels of NQO2 are increased (Table 4). […] The cytotoxicity of the compounds may be due to the inhibition of other enzymes associated with the activation of apoptosis in cancer cells, for example GSK3b or tyrosine kinases, or with the general non-specific toxicity of these compounds. Thus, the influence of NQO2 on A549 cell viability has not been established.
(§2) The A549 cells were maintained in F12-K (Gibco, Paisley, UK) supplemented with 10% fetal bovine serum (FBS, Gibco, UK), penicillin (100 UI mL^−1), streptomycin (100 µg mL^−1) and GlutaMax (2 mM, Gibco, UK). All cells line were cultured under a humidified atmosphere of 95% air/5% CO2 at 37 °C. Subconfluent monolayers, in the log growth phase, were harvested by a brief treatment with TrypLE Express solution (Gibco, UK) in phosphate-buffered saline (PBS, Capricorn Scientific, Ebsdorfergrund, Germany) and washed three times in serum-free PBS. The number of viable cells was determined by trypan blue exclusion.
(§3) The effects of the synthesized compounds on cell viability were determined using the MTT colorimetric test. All examined cells were diluted with the growth medium to 3.5 × 10^4 cells per mL and the aliquots (7 × 10^3 cells per 200 μL) were placed in individual wells in 96-multiplates (Eppendorf, Germany) and incubated for 24 h. […] After incubation, the cells were then treated with 40 μL MTT solution (3-(4,5-dimethylthiazol-2-yl)-2,5-diphenyltetrazolium bromide, 5 mg mL^−1 in PBS) and incubated for 4 h. After an additional 4 h incubation, the medium with MTT was removed and DMSO (150 μL) was added to dissolve the formazan crystals. The plates were shaken for 10 min. The optical density of each well was determined at 560 nm using a microplate reader GloMax Multi+ (Promega, Madison, WI, USA). Each of the tested compounds was evaluated for cytotoxicity in three separate experiments.

[4] = as above; format: cell-based; settings: human, n.a. = not active, read-out: A549, CC50
Description: as §1, §2, §3

[5] = recombinant human NQO2, 100 μM menadione, 100 μM BNAH, read-out: NQO2 IC50 ± SEM

| Molecule | IC50 [2, 5] [µM] | CC50 at 72 h [4] [µM] | also measured |
| --- | --- | --- | --- |
| COc1ccc2[nH]cc(CCNC(C)=O)c2c1 [Melatonin] |  |  | IC50 [1]: 6 µM; NQO2 inhibition concentration range [1]: ~50 µM |
| (E,Z)-3-(4-Fluorobenzylidene)-2-oxindole [Compound 33] | > 50 |  | NQO2 Inhibition, % ([2]; inhibition at 10 µM concentration): 19.46%; CC50 [3]: 38.6 ± 10.4 µM |
| O=C1Nc2ccc(Br)cc2C1=Cc1cccs1 [Compound 38, 5-bromo-3-(2-thienylmethylidene)-2-oxindole] |  | 427 ± 6.2 | IC50 [2]: > 50 µM |
| COc1ccc(C=C2C(=O)Nc3ccc(NC(=O)c4ccccc4)cc32)cc1 [Compound 21, (E,Z)-3-(4-Methoxybenzylidene)-5-benzoylamino-2-oxindole] | > 50 | 42.3 ± 8.3 |  |
| COC(=O)Nc1ccc2[nH]cc(CCNC(C)=O)c2c1 [MCA-NAT] |  |  | IC50 [1]: 0.037 µM |
| COc1ccc(C(=O)CC2(O)C(=O)Nc3ccc(Br)cc32)cc1 (centres unmarked) [Compound 50, 3-hydroxy-5-bromo-3-[2-(4-methoxyphenyl)-2-oxoethyl]-2-oxindole] |  | 474 ± 18.2 | inhibition at 10 µM [2]: 78.8% |
| CC(=O)Nc1ccc2c(c1)C(=Cc1ccccn1)C(=O)N2 [Compound 5, (E,Z)-3-(2-Pyridinylmethylidene)-5-acetamido-2-oxindole] |  | 136 | IC50 [2]: 41.1 ± 2.44 µM |
| COc1cc(C=C2C(=O)Nc3ccc(NC(C)=O)cc32)cc(OC)c1OC [Compound 24, 3-(3,4,5-trimethoxybenzylidene)-5-acetylamino-2-oxindole] | 0.37 ± 0.01 | 149 ± 2.63 |  |
| O=C1Nc2ccc(NC(=O)c3ccccc3)cc2C1=Cc1ccc(O)cc1 [Compound 19, 3-(4-hydroxybenzylidene)-5-benzoylamino-2-oxindole] |  | 412.2 ± 3.98 | inhibition at 10 µM [2]: 62.9% |
| O=C1Nc2ccccc2/C1=C\c1ccccn1 [Compound 1, (E)-3-(2-pyridinylmethylidene)-2-oxindole] |  | 48 ± 4.42 | IC50 [2]: > 50 µM |
| COC(=O)Nc1ccc2c(c1)C(=Cc1ccc(O)cc1)C(=O)N2 [Compound 17, 3-(4-hydroxybenzylidene)-5-(methoxycarbonylamino)-2-oxindole] | 0.44 ± 0.02 | 44.43 ± 0.29 |  |
| O=C1Nc2ccc(NC(=O)c3ccccc3)cc2C1=Cc1ccccn1 [Compound 6, (E,Z)-3-(2-Pyridinylmethylidene)-5-benzoylamino-2-oxindole] |  | 17.4 ± 1.8 | inhibition at 10 µM [2]: 43.1% |
| Cc1n[nH]cc1C=C1C(=O)Nc2ccccc21 [Compound 43, 3-((3-methyl-1H-pyrazol-4-yl)methylene)-2-oxindole] |  | 219 | IC50 [2]: 7.61 ± 0.19 µM |
| O=C1Nc2ccc(Br)cc2C1=Cc1ccncc1 [Compound 11, 5-bromo-3-(4-pyridinylmethylidene)-2-oxindole] |  | 22.3 ± 1.42 | inhibition at 10 µM [2]: 41.9% |
| O=C1Nc2ccc(Br)cc2C1=Cc1ccccn1 [Compound 3, 5-bromo-3-(2-pyridinylmethylidene)-2-oxindole] | > 50 | 90.6 ± 1.5 |  |
| O=C1Nc2ccc(NC(=O)c3ccco3)cc2C1=Cc1ccc(O)cc1 [Compound 18, 3-(4-hydroxybenzylidene)-5-furoylamino-2-oxindole] | 0.37 ± 0.02 | 146 ± 11.3 |  |
